According to ChEMBL document CHEMBL1158006, “Alkylfurans: effects of alkyl side-chain length on insecticidal activity” (1999):
Active and inactive are the calls of the source. No cut-off for these calls is given here.

Experiments:
Spodoptera exigua [1] = assay: Insecticidal activity against Spodoptera exigua; assay type: functional
Spodoptera exigua [2] = assay: Insecticidal activity against Spodoptera exigua assessed as increase of larval mortality at 5 umol/g in artificial diet after 9 days relative to control; assay type: functional
Spodoptera exigua [3] = assay: Insecticidal activity against Spodoptera exigua assessed as reduction of weight at 5 umol/g in artificial diet after 9 days relative to control; assay type: functional, organism-based

| Compound | LC50 (Spodoptera exigua [1]) [µg/g] | Activity (Spodoptera exigua [2]) [%] | Activity (Spodoptera exigua [3]) |
| --- | --- | --- | --- |
| CCCCCCCCCCCCCCCc1ccco1 | 1031 | 93 |  |
| CCCCCCCCCCCCCCc1ccco1 |  | <50 | Active |
| CCCCCCCCCCCCCCCCCCc1ccco1 |  | 68 |  |
| CCCCCCCCCCCCCCCCCc1ccco1 [2-(HEPTADECYL)FURAN] | 1206 | 95 |  |
